± gives the expanded uncertainty stated by the source.
Conditions: Coaxial cylinder method

CCC [propane]
thermal conductivity [W/m/K]
Conditions	367.32 K	368.46 K
2968 kPa, Gas	–	0.03214 ± 0.002
2972 kPa, Gas	–	0.03214 ± 0.002
2978 kPa, Gas	–	0.03213 ± 0.002
3000 kPa, Gas	–	0.03223 ± 0.002
3030 kPa, Gas	–	0.03238 ± 0.002
3100 kPa, Gas	–	0.03275 ± 0.0021
3150 kPa, Gas	–	0.03302 ± 0.0021
3200 kPa, Gas	–	0.03331 ± 0.0021
3250 kPa, Gas	–	0.0336 ± 0.0021
3300 kPa, Gas	–	0.03395 ± 0.0021
3350 kPa, Gas	–	0.03428 ± 0.0022
3400 kPa, Gas	–	0.03471 ± 0.0022
3500 kPa, Gas	–	0.03552 ± 0.0022
3575 kPa, Gas	–	0.03626 ± 0.0023
3650 kPa, Gas	–	0.03704 ± 0.0023
3700 kPa, Gas	–	0.03759 ± 0.0024
3720 kPa, Gas	–	0.03785 ± 0.0024
3730 kPa, Gas	–	0.03799 ± 0.0024
3740 kPa, Gas	–	0.0381 ± 0.0024
3750 kPa, Gas	–	0.03825 ± 0.0024
3755 kPa, Gas	–	0.03832 ± 0.0024
3765 kPa, Gas	–	0.03844 ± 0.0024
3775 kPa, Gas	–	0.03858 ± 0.0024
3785 kPa, Gas	–	0.03873 ± 0.0024
3790 kPa, Gas	–	0.03878 ± 0.0024
3800 kPa, Gas	–	0.03892 ± 0.0024
3850 kPa, Gas	–	0.03974 ± 0.0025
3900 kPa, Gas	–	0.04073 ± 0.0026
3950 kPa, Gas	–	0.04194 ± 0.0026
4000 kPa, Gas	–	0.04351 ± 0.0027
4038 kPa, Gas	–	0.04518 ± 0.0028
4060 kPa, Gas	–	0.04654 ± 0.0032
4066 kPa, Liquid	0.1808 ± 0.013	–
4067 kPa, Liquid	0.1761 ± 0.013	–
4068 kPa, Liquid	0.1712 ± 0.012	–
4069 kPa, Liquid	0.1669 ± 0.012	–
4070 kPa, Liquid	0.1627 ± 0.012	–
4071 kPa, Liquid	0.1586 ± 0.011	–
4072 kPa, Liquid	0.1546 ± 0.012	–
4073 kPa, Liquid	0.1511 ± 0.012	–
4074 kPa, Liquid	0.1475 ± 0.012	–
4075 kPa, Liquid	0.1439 ± 0.011	–
4076 kPa, Liquid	0.1405 ± 0.011	–
4077 kPa, Liquid	0.1378 ± 0.011	–
4078 kPa, Liquid	0.1345 ± 0.011	–
4079 kPa, Liquid	0.1317 ± 0.011	–
4080 kPa, Gas	–	0.04809 ± 0.0037
4080 kPa, Liquid	0.129 ± 0.011	–
4081 kPa, Liquid	0.127 ± 0.011	–
4082 kPa, Liquid	0.1249 ± 0.011	–
4083 kPa, Liquid	0.123 ± 0.01	–
4084 kPa, Liquid	0.121 ± 0.01	–
4085 kPa, Liquid	0.1189 ± 0.01	–
4086 kPa, Liquid	0.1166 ± 0.01	–
4087 kPa, Liquid	0.115 ± 0.0099	–
4088 kPa, Liquid	0.1136 ± 0.0097	–
4089 kPa, Liquid	0.1118 ± 0.0096	–
4090 kPa, Liquid	0.1105 ± 0.0096	–
4091 kPa, Liquid	0.109 ± 0.0095	–
4092 kPa, Liquid	0.1085 ± 0.0095	–
4093 kPa, Liquid	0.1068 ± 0.0093	–
4094 kPa, Liquid	0.1051 ± 0.0092	–
4095 kPa, Liquid	0.1042 ± 0.0092	–
4096 kPa, Gas	–	0.04969 ± 0.024
4096 kPa, Liquid	0.1034 ± 0.0092	–
4097 kPa, Liquid	0.1027 ± 0.0089	–
4098 kPa, Liquid	0.1021 ± 0.0086	–
4099 kPa, Gas	–	0.05013 ± 0.014
4099 kPa, Liquid	0.1016 ± 0.0085	–
4100 kPa, Liquid	0.1007 ± 0.0084	–
4101 kPa, Liquid	0.09965 ± 0.0083	–
4102 kPa, Gas	–	0.0505 ± 0.011
4102 kPa, Liquid	0.09856 ± 0.0082	–
4103 kPa, Liquid	0.09755 ± 0.008	–
4104 kPa, Gas	–	0.05078 ± 0.01
4104 kPa, Liquid	0.09655 ± 0.008	–
4105 kPa, Liquid	0.09562 ± 0.0079	–
4106 kPa, Gas	–	0.05104 ± 0.0074
4106 kPa, Liquid	0.0947 ± 0.0078	–
4107 kPa, Liquid	0.0938 ± 0.0077	–
4108 kPa, Liquid	0.09296 ± 0.0076	–
4109 kPa, Liquid	0.09214 ± 0.0075	–
4110 kPa, Liquid	0.09124 ± 0.0075	–
4112 kPa, Gas	–	0.05196 ± 0.0033
4112 kPa, Liquid	0.08967 ± 0.0074	–
4114 kPa, Gas	–	0.05236 ± 0.0033
4114 kPa, Liquid	0.0892 ± 0.0073	–
4115 kPa, Gas	–	0.0525 ± 0.0033
4116 kPa, Gas	–	0.0527 ± 0.0033
4116 kPa, Liquid	0.08674 ± 0.0071	–
4117 kPa, Gas	–	0.05291 ± 0.0033
4118 kPa, Gas	–	0.05307 ± 0.0033
4118 kPa, Liquid	0.08545 ± 0.007	–
4119 kPa, Gas	–	0.05335 ± 0.0034
4120 kPa, Gas	–	0.05349 ± 0.0034
4120 kPa, Liquid	0.08412 ± 0.0069	–
4121 kPa, Gas	–	0.05378 ± 0.0036
4122 kPa, Gas	–	0.05392 ± 0.0038
4122 kPa, Liquid	0.08294 ± 0.0069	–
4123 kPa, Gas	–	0.05418 ± 0.0041
4124 kPa, Gas	–	0.0565 ± 0.0047
4124 kPa, Liquid	0.08176 ± 0.0068	–
4125 kPa, Gas	–	0.0589 ± 0.0054
4126 kPa, Gas	–	0.06178 ± 0.0062
4126 kPa, Liquid	0.08067 ± 0.0067	–
4127 kPa, Gas	–	0.06494 ± 0.0072
4128 kPa, Gas	–	0.06863 ± 0.0079
4128 kPa, Liquid	0.07964 ± 0.0066	–
4129 kPa, Gas	–	0.07284 ± 0.0089
4130 kPa, Gas	–	0.07749 ± 0.0098
4130 kPa, Liquid	0.07867 ± 0.0066	–
4131 kPa, Gas	–	0.08276 ± 0.011
4132 kPa, Gas	–	0.08878 ± 0.012
4132 kPa, Liquid	0.07775 ± 0.0066	–
4133 kPa, Gas	–	0.09573 ± 0.014
4134 kPa, Gas	–	0.1033 ± 0.016
4134 kPa, Liquid	0.07688 ± 0.0066	–
4135 kPa, Gas	–	0.1122 ± 0.018
4136 kPa, Gas	–	0.1221 ± 0.02
4136 kPa, Liquid	0.07609 ± 0.0065	–
4137 kPa, Gas	–	0.1337 ± 0.024
4138 kPa, Gas	–	0.1478 ± 0.025
4138 kPa, Liquid	0.07523 ± 0.0064	–
4139 kPa, Gas	–	0.1619 ± 0.026
4140 kPa, Gas	–	0.1793 ± 0.027
4140 kPa, Liquid	0.07455 ± 0.0064	–
4141 kPa, Gas	–	0.2022 ± 0.028
4142 kPa, Gas	–	0.214 ± 0.029
4142 kPa, Liquid	0.0738 ± 0.0064	–
4143 kPa, Gas	–	0.2272 ± 0.03
4144 kPa, Gas	–	0.241 ± 0.03
4144 kPa, Liquid	0.07315 ± 0.0064	–
4145 kPa, Liquid	–	0.2612 ± 0.019
4146 kPa, Liquid	0.0725 ± 0.006	0.2405 ± 0.017
4147 kPa, Liquid	–	0.2228 ± 0.016
4148 kPa, Liquid	0.07187 ± 0.0055	0.2065 ± 0.015
4149 kPa, Liquid	–	0.1933 ± 0.014
4150 kPa, Liquid	0.07132 ± 0.0053	0.1809 ± 0.013
4151 kPa, Liquid	–	0.1745 ± 0.012
4152 kPa, Liquid	0.07076 ± 0.0051	0.1686 ± 0.012
4153 kPa, Liquid	–	0.164 ± 0.012
4154 kPa, Liquid	0.07028 ± 0.005	0.1581 ± 0.011
4155 kPa, Liquid	–	0.1533 ± 0.011
4156 kPa, Liquid	0.06982 ± 0.0049	0.1489 ± 0.01
4157 kPa, Liquid	–	0.1449 ± 0.011
4158 kPa, Liquid	–	0.141 ± 0.011
4159 kPa, Liquid	–	0.1373 ± 0.011
4160 kPa, Liquid	0.06894 ± 0.0047	0.1338 ± 0.011
4161 kPa, Liquid	–	0.1305 ± 0.011
4162 kPa, Liquid	0.06852 ± 0.0046	0.1273 ± 0.01
4163 kPa, Liquid	–	0.1243 ± 0.01
4164 kPa, Liquid	0.06814 ± 0.0046	0.1214 ± 0.01
4165 kPa, Liquid	–	0.12 ± 0.01
4166 kPa, Liquid	0.06773 ± 0.0045	–
4168 kPa, Liquid	0.0674 ± 0.0045	–
4170 kPa, Liquid	0.06707 ± 0.0045	–
4172 kPa, Liquid	0.06674 ± 0.0044	–
4174 kPa, Liquid	0.06646 ± 0.0044	–
4176 kPa, Liquid	0.0662 ± 0.0044	–
4178 kPa, Liquid	0.06599 ± 0.0043	–
4180 kPa, Liquid	0.06574 ± 0.0043	–
4182 kPa, Liquid	0.06551 ± 0.0043	–
4184 kPa, Liquid	0.0653 ± 0.0043	–
4186 kPa, Liquid	0.06509 ± 0.0043	–
4188 kPa, Liquid	0.0649 ± 0.0042	–
4190 kPa, Liquid	0.06474 ± 0.0042	–
4192 kPa, Liquid	0.0647 ± 0.0042	–
4194 kPa, Liquid	0.06462 ± 0.0042	–
4196 kPa, Liquid	0.06458 ± 0.0042	–
4198 kPa, Liquid	0.06458 ± 0.0042	–
4200 kPa, Liquid	0.06456 ± 0.0042	–
4202 kPa, Liquid	0.06454 ± 0.0042	–
4204 kPa, Liquid	0.06452 ± 0.0042	–
4206 kPa, Liquid	0.0645 ± 0.0042	–
4208 kPa, Liquid	0.06448 ± 0.0042	–
4210 kPa, Liquid	0.06446 ± 0.0042	–
4212 kPa, Liquid	0.06444 ± 0.0042	–
4214 kPa, Liquid	0.06445 ± 0.0042	–
4216 kPa, Liquid	0.06443 ± 0.0042	–
4218 kPa, Liquid	0.06443 ± 0.0042	–
4220 kPa, Liquid	0.06439 ± 0.0042	–
4222 kPa, Liquid	0.06437 ± 0.0042	–
4224 kPa, Liquid	0.06435 ± 0.0042	–
4226 kPa, Liquid	0.06433 ± 0.0042	–
4228 kPa, Liquid	0.06435 ± 0.0042	–
4230 kPa, Liquid	0.06433 ± 0.0042	–
4232 kPa, Liquid	0.06431 ± 0.0042	–
4234 kPa, Liquid	0.06432 ± 0.0042	–
4236 kPa, Liquid	0.06432 ± 0.0042	–
4238 kPa, Liquid	0.0643 ± 0.0042	–
4240 kPa, Liquid	0.06428 ± 0.0042	–
4250 kPa, Liquid	0.06424 ± 0.0042	–
4260 kPa, Liquid	0.0642 ± 0.0042	–
4270 kPa, Liquid	0.06416 ± 0.0042	–
4280 kPa, Liquid	0.06413 ± 0.0042	–
4290 kPa, Liquid	0.06409 ± 0.0042	–
4300 kPa, Liquid	0.06407 ± 0.0042	–
4350 kPa, Liquid	0.06399 ± 0.0042	–
4400 kPa, Liquid	0.06399 ± 0.0042	–
4450 kPa, Liquid	0.06405 ± 0.0042	–
4500 kPa, Liquid	0.06413 ± 0.0042	–
4550 kPa, Liquid	0.06426 ± 0.0042	–
4600 kPa, Liquid	0.0644 ± 0.0042	–
4650 kPa, Liquid	0.06452 ± 0.0042	–
4700 kPa, Liquid	0.06466 ± 0.0042	–
4770 kPa, Liquid	0.06483 ± 0.0042	–
4800 kPa, Liquid	0.06498 ± 0.0042	–
4850 kPa, Liquid	0.06516 ± 0.0042	–
4900 kPa, Liquid	0.06532 ± 0.0043	–
4950 kPa, Liquid	0.06554 ± 0.0043	–
4976 kPa, Liquid	0.06564 ± 0.0043	–
5077 kPa, Liquid	0.06597 ± 0.0043	–

Source: the NIST ThermoML archive (doi:10.1016/j.fluid.2017.06.019)
